Measurements as given in PubChem BioAssay AID1963851 (Molecular Pharmacology Branch, DTP, NCI, 2024).

Test system: 188146-221-R-J1-PDC complex spheroid viability
Assay: Anticancer human tumor 188146-221-R-J1-PDC patient-derived colon adenocarcinoma cell line growth inhibition [POLQ]
Conditions: for IC50: curve of first compound; for viability, T/C: stronger effect = lower value
Summary of the method: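 Three-cell-type spheroids modelling solid tumor plus stroma served as the readout system; POL inhibitors were tested individually and in combination, concentration ranges set by clinical Cmax where known.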

[1] = second compound 0.0316 µM, first compound 0.0316 µM
[2] = second compound 0.0316 µM, first compound 0.1 µM
[3] = second compound 0.0316 µM, first compound 0.316 µM
[4] = second compound 0.0316 µM, first compound 1 µM
[5] = second compound 0.0316 µM, first compound 3.16 µM
[6] = second compound 0.0316 µM, first compound 10 µM
[7] = second compound 0.1 µM, first compound 0.0316 µM
[8] = second compound 0.1 µM, first compound 0.1 µM
[9] = second compound 0.1 µM, first compound 0.316 µM
[10] = second compound 0.1 µM, first compound 1 µM
[11] = second compound 0.1 µM, first compound 3.16 µM
[12] = second compound 0.1 µM, first compound 10 µM
[13] = second compound 0.316 µM, first compound 0.0316 µM
[14] = second compound 0.316 µM, first compound 0.1 µM
[15] = second compound 0.316 µM, first compound 0.316 µM
[16] = second compound 0.316 µM, first compound 1 µM
[17] = second compound 0.316 µM, first compound 3.16 µM
[18] = second compound 0.316 µM, first compound 10 µM
[19] = second compound 1 µM, first compound 0.0316 µM
[20] = second compound 1 µM, first compound 0.1 µM
[21] = second compound 1 µM, first compound 0.316 µM
[22] = second compound 1 µM, first compound 1 µM
[23] = second compound 1 µM, first compound 3.16 µM
[24] = second compound 1 µM, first compound 10 µM
[25] = second compound 3.16 µM, first compound 0.0316 µM
[26] = second compound 3.16 µM, first compound 0.1 µM
[27] = second compound 3.16 µM, first compound 0.316 µM
[28] = second compound 3.16 µM, first compound 1 µM
[29] = second compound 3.16 µM, first compound 3.16 µM
[30] = second compound 3.16 µM, first compound 10 µM
[31] = second compound 10 µM, first compound 0.0316 µM
[32] = second compound 10 µM, first compound 0.1 µM
[33] = second compound 10 µM, first compound 0.316 µM
[34] = second compound 10 µM, first compound 1 µM
[35] = second compound 10 µM, first compound 3.16 µM
[36] = second compound 10 µM, first compound 10 µM
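Also: spheroids exposed to compounds for seven days.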
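For viability, T/C in this document: 100% = DMSO vehicle control viability.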

C#Cc1c(F)ccc2cc(O)cc(-c3ncc4c(N5CC6CCC(C5)N6)nc(OCC56CCCN5CC(F)C6)nc4c3F)c12 (centres undefined) + COC1C(OC(N)=O)C(O)C(Oc2ccc3c(O)c(NC(=O)c4ccc(O)c(CC=C(C)C)c4)c(=O)oc3c2C)OC1(C)C
IC50 (second compound 0.0316 µM): > 10000 nM | IC50 (second compound 0.1 µM): > 10000 nM | IC50 (second compound 0.316 µM): > 10000 nM | IC50 (second compound 1 µM): > 10000 nM | IC50 (second compound 3.16 µM): > 10000 nM | IC50 (second compound 10 µM): > 10000 nM | viability, T/C [1]: 105% | viability, T/C [2]: 93.5% | viability, T/C [3]: 100% | viability, T/C [4]: 100% | viability, T/C [5]: 103% | viability, T/C [6]: 83.1% | viability, T/C [7]: 122% | viability, T/C [8]: 94% | viability, T/C [9]: 92.5% | viability, T/C [10]: 95.9% | viability, T/C [11]: 85.2% | viability, T/C [12]: 93.5% | viability, T/C [13]: 113% | viability, T/C [14]: 95.9% | viability, T/C [15]: 102% | viability, T/C [16]: 92.8% | viability, T/C [17]: 92.5% | viability, T/C [18]: 103% | viability, T/C [19]: 112% | viability, T/C [20]: 96.1% | viability, T/C [21]: 100% | viability, T/C [22]: 90.5% | viability, T/C [23]: 93.8% | viability, T/C [24]: 88.8% | viability, T/C [25]: 106% | viability, T/C [26]: 103% | viability, T/C [27]: 110% | viability, T/C [28]: 87.2% | viability, T/C [29]: 104% | viability, T/C [30]: 82.6% | viability, T/C [31]: 100% | viability, T/C [32]: 98.6% | viability, T/C [33]: 108% | viability, T/C [34]: 97.2% | viability, T/C [35]: 95.6% | viability, T/C [36]: 92.8%

CC1COCCN1c1cc(C2(O)CC3CCC(C2)O3)c2cnn(-c3ccn[nH]3)c2n1 (centres undefined) + Cc1cccc(N(C)C(=O)C2C(O)CCN2c2nc(C)cc(C(F)(F)F)c2C#N)c1
IC50 (second compound 0.0316 µM): 422 nM | IC50 (second compound 0.1 µM): 322 nM | IC50 (second compound 0.316 µM): 365 nM | IC50 (second compound 1 µM): 426 nM | IC50 (second compound 3.16 µM): 259 nM | IC50 (second compound 10 µM): 190 nM | viability, T/C [1]: 83.2% | viability, T/C [2]: 67.8% | viability, T/C [3]: 61.5% | viability, T/C [4]: 27.6% | viability, T/C [5]: 19.2% | viability, T/C [6]: 7.58% | viability, T/C [7]: 95.3% | viability, T/C [8]: 75.7% | viability, T/C [9]: 51.1% | viability, T/C [10]: 26.6% | viability, T/C [11]: 16.8% | viability, T/C [12]: 7.79% | viability, T/C [13]: 91.9% | viability, T/C [14]: 80.2% | viability, T/C [15]: 52.4% | viability, T/C [16]: 27.4% | viability, T/C [17]: 17.4% | viability, T/C [18]: 9.2% | viability, T/C [19]: 89.2% | viability, T/C [20]: 71.9% | viability, T/C [21]: 56.1% | viability, T/C [22]: 36% | viability, T/C [23]: 19.2% | viability, T/C [24]: 7.67% | viability, T/C [25]: 94.8% | viability, T/C [26]: 68.4% | viability, T/C [27]: 46.4% | viability, T/C [28]: 27.3% | viability, T/C [29]: 22.8% | viability, T/C [30]: 8.6% | viability, T/C [31]: 80.7% | viability, T/C [32]: 60.3% | viability, T/C [33]: 43.4% | viability, T/C [34]: 24% | viability, T/C [35]: 23.9% | viability, T/C [36]: 9.35%
